Experimental data published in ChEMBL document CHEMBL1147978, “Small molecule inhibitors of a glycoside hydrolase attenuate inducible AmpC-mediated beta-lactam resistance” (J Biol Chem, 2007).
Values after ≈ are worked out from the molar mass of the structure shown.

Columns and labels:
Escherichia coli [1] = assay: Antimicrobial activity against wild type Escherichia coli by serial dilution method; assay type: functional
Escherichia coli [2] = assay: Antimicrobial activity against ampD deficient Escherichia coli in medium containing EtbuPUG by serial dilution method; assay type: functional
Escherichia coli [3] = assay: Antimicrobial activity against wild type Escherichia coli transfected with pCF1 by serial dilution method
Escherichia coli [4] = assay: Antimicrobial activity against wild type EtbuPUG treated Escherichia coli transfected with pCF1 by serial dilution method; assay type: functional
Escherichia coli [5] = assay: Antimicrobial activity against wild type Escherichia coli in medium containing EtbuPUG by serial dilution method; assay type: functional
Escherichia coli [6] = assay: Antimicrobial activity against ampD deficient Escherichia coli transfected with pCF1 in medium containing EtbuPUG by serial dilution method; assay type: functional
Escherichia coli [7] = assay: Antimicrobial activity against ampD deficient Escherichia coli transfected with pCF1 by serial dilution method; assay type: functional
Escherichia coli [8] = assay: Antimicrobial activity against ampD deficient Escherichia coli by serial dilution method; assay type: functional
[9] = target: T1, Beta-hexosaminidase (Vibrio cholerae serotype O1 (strain ATCC 39315 / El Tor Inaba N16961)) (UniProt Q9KU37); assay: Inhibition of Vibrio cholerae NagZ
T1 sequence (whole entry): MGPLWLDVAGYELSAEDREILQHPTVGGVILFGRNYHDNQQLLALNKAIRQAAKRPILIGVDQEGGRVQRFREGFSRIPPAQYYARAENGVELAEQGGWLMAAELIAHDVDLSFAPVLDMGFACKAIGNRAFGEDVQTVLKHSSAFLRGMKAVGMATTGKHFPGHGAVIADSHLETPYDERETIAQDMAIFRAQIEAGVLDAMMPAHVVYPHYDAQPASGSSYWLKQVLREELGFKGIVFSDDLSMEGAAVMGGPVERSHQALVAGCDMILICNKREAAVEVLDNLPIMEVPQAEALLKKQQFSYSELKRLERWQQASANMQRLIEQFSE

[10] = target: Protein O-GlcNAcase (Homo sapiens) (UniProt O60502); assay: Inhibition of human family 84 O-GLcNAcase
Homo sapiens = species: Homo sapiens; assay: Inhibition of human family 20 beta-hexosaminidase
[11] = Ratio of human 84 O-GLcNAcase to Vibrio cholerae NagZ
[12] = Inhibition of bovine family 20 beta-hexosaminidase; set-up: species or system Bos taurus
Escherichia coli [13] = assay: Antimicrobial activity against wild type Escherichia coli transfected with pCF1 by agar diffusion assay; assay type: functional
Escherichia coli [14] = assay: Antimicrobial activity against wild type Escherichia coli transfected with pCF1 in medium containing EtbuPUG by agar diffusion assay; assay type: functional
Escherichia coli [15] = assay: Antimicrobial activity against ampD deficient Escherichia coli transfected with pCF1 in medium containing EtbuPUG by agar diffusion assay; assay type: functional
Escherichia coli [16] = assay: Antimicrobial activity against ampD deficient Escherichia coli transfected with pCF1 by agar diffusion assay; assay type: functional
[17] = Selectivity for Vibrio cholerae NagZ over human family 20 beta-hexosaminidase
[18] = Selectivity for Vibrio cholerae NagZ over human family 84 O-GLcNAcas

Sequence of Protein O-GlcNAcase (Homo sapiens) (O60502 whole entry, looked up): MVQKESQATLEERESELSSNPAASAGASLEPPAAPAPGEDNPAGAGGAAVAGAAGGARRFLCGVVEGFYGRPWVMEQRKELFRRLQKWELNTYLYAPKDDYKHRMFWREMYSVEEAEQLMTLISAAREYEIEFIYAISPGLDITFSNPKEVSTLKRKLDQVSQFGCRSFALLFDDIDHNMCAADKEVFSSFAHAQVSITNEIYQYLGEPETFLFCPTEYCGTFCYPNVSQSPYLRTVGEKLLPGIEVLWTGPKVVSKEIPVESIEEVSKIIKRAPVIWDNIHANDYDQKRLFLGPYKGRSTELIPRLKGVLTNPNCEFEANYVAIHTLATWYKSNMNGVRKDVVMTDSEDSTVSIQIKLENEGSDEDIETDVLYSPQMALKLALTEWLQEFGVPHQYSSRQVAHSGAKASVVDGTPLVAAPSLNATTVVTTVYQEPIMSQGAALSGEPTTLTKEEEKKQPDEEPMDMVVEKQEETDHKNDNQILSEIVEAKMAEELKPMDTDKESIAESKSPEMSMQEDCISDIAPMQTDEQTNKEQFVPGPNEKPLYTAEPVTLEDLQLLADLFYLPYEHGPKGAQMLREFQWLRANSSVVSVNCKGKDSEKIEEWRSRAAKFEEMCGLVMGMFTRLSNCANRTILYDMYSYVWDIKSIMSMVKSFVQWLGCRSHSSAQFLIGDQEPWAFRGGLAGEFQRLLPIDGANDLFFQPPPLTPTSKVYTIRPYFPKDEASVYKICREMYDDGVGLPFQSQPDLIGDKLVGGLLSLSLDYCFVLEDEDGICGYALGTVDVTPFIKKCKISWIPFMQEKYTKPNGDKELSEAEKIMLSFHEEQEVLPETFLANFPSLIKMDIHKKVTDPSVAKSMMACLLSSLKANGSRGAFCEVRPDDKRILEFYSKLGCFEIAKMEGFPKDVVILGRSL

Compound: CO/N=C(\C(=O)N[C@@H]1C(=O)N2C(C(=O)O)=C(CSc3nc(=O)c(O)nn3C)CS[C@H]12)c1csc(N)n1 [CEFTRIAXONE]
- MIC (Escherichia coli [1]): < 1 µg/mL
- MIC (Escherichia coli [2]): < 2 µg/mL
- MIC (Escherichia coli [3]): 32 µg/mL (≈ 57.7 µM)
- MIC (Escherichia coli [4]): 16 µg/mL (≈ 28.9 µM)
- MIC (Escherichia coli [5]): < 1 µg/mL
- MIC (Escherichia coli [6]): 32 µg/mL (≈ 57.7 µM)
- MIC (Escherichia coli [7]): 128 µg/mL (≈ 231 µM)
- MIC (Escherichia coli [8]): < 2 µg/mL

Compound: CCCC(=O)N[C@H]1/C(=N/OC(=O)Nc2ccccc2)O[C@H](CO)[C@@H](O)[C@@H]1O
- Kinact [9]: 0.26 µM
- Ki [10]: 40 µM
- Ki (Homo sapiens): 26 µM

Compound: CCCCC(=O)N[C@H]1/C(=N/OC(=O)Nc2ccccc2)O[C@H](CO)[C@@H](O)[C@@H]1O
- Selectivity ratio [11]: 121
- Kinact [9]: 0.33 µM
- Ki [10]: 40 µM
- Ki (Homo sapiens): 220 µM

Compound: CC(=O)N[C@H]1c2nc(CC(=O)O)cn2[C@H](CO)[C@@H](O)[C@@H]1O
- Selectivity ratio [11]: 0.03
- IC50 [12]: 0.0052 µM
- Kinact [9]: 15 µM
- Ki [10]: 0.43 µM

Compound: CC(C)C(=O)N[C@H]1/C(=N/OC(=O)Nc2ccccc2)O[C@H](CO)[C@@H](O)[C@@H]1O
- Selectivity ratio [11]: 18
- Kinact [9]: 0.51 µM
- Ki [10]: 9 µM
- Ki (Homo sapiens): 20 µM

Compound: CC(=O)N[C@H]1/C(=N/O)O[C@H](CO)[C@@H](O)[C@@H]1O
- Selectivity ratio [11]: 29
- Kinact [9]: 0.22 µM
- Ki [10]: 6.4 µM

Compound: CO/N=C(\C(=O)N[C@@H]1C(=O)N2C(C(=O)O)=C(COC(C)=O)CS[C@H]12)c1csc(N)n1 [CEFOTAXIME]
- inhibition zone (IZ) (Escherichia coli [13]): 10.3 mm
- inhibition zone (IZ) (Escherichia coli [14]): 12.9 mm
- MIC (Escherichia coli [1]): 1 µg/mL (≈ 2.2 µM)
- MIC (Escherichia coli [2]): < 2 µg/mL
- MIC (Escherichia coli [3]): 64 µg/mL (≈ 141 µM)
- MIC (Escherichia coli [4]): 16 µg/mL (≈ 35.1 µM)
- inhibition zone (IZ) (Escherichia coli [15]): 9 mm
- MIC (Escherichia coli [5]): 1 µg/mL (≈ 2.2 µM)
- MIC (Escherichia coli [6]): 64 µg/mL (≈ 141 µM)
- inhibition zone (IZ) (Escherichia coli [16]): 7.1 mm
- MIC (Escherichia coli [7]): 128 µg/mL (≈ 281 µM)
- MIC (Escherichia coli [8]): < 2 µg/mL

Compound: CCC(CC)C(=O)N[C@H]1/C(=N/OC(=O)Nc2ccccc2)O[C@H](CO)[C@@H](O)[C@@H]1O
- Selectivity ratio [11]: 109
- Kinact [9]: 3.1 µM
- Selectivity ratio [17]: 100
- Selectivity ratio [18]: 100
- Ki [10]: 337 µM
- Ki (Homo sapiens): > 3000 µM

Compound: CC(C)(O/N=C(\C(=O)N[C@@H]1C(=O)N2C(C(=O)[O-])=C(C[n+]3ccccc3)CS[C@H]12)c1csc(N)n1)C(=O)O [CEFTAZIDIME]
- MIC (Escherichia coli [1]): 1 µg/mL (≈ 1.83 µM)
- MIC (Escherichia coli [2]): < 2 µg/mL
- MIC (Escherichia coli [3]): 64 µg/mL (≈ 117 µM)
- MIC (Escherichia coli [4]): 32 µg/mL (≈ 58.5 µM)
- MIC (Escherichia coli [5]): 1 µg/mL (≈ 1.83 µM)
- MIC (Escherichia coli [6]): 64 µg/mL (≈ 117 µM)
- MIC (Escherichia coli [7]): 256 µg/mL (≈ 468 µM)
- MIC (Escherichia coli [8]): < 2 µg/mL

Compound: CCC(=O)N[C@H]1/C(=N/OC(=O)Nc2ccccc2)O[C@H](CO)[C@@H](O)[C@@H]1O
- Selectivity ratio [11]: 7.5
- Kinact [9]: 0.16 µM
- Ki [10]: 1.2 µM
- Ki (Homo sapiens): 1.2 µM

Compound: CCCCCC(=O)N[C@H]1/C(=N/OC(=O)Nc2ccccc2)O[C@H](CO)[C@@H](O)[C@@H]1O
- Selectivity ratio [11]: 33
- Kinact [9]: 6.5 µM
- Ki [10]: 220 µM
- Ki (Homo sapiens): > 900 µM

Compound: CC(=O)N[C@H]1/C(=N/OC(=O)Nc2ccccc2)O[C@H](CO)[C@@H](O)[C@@H]1O
- Kinact [9]: 0.048 µM
- Ki (Homo sapiens): 0.036 µM

Compound: CO[C@@]1(NC(=O)Cc2cccs2)C(=O)N2C(C(=O)O)=C(COC(N)=O)CS[C@@H]21 [CEFOXITIN]
- inhibition zone (IZ) (Escherichia coli [13]): 9.3 mm
- inhibition zone (IZ) (Escherichia coli [14]): 10.9 mm
- MIC (Escherichia coli [1]): 1 µg/mL (≈ 2.34 µM)
- MIC (Escherichia coli [2]): 2 µg/mL (≈ 4.68 µM)
- MIC (Escherichia coli [3]): 64 µg/mL (≈ 150 µM)
- MIC (Escherichia coli [4]): 32 µg/mL (≈ 74.9 µM)
- inhibition zone (IZ) (Escherichia coli [15]): 10.8 mm
- MIC (Escherichia coli [5]): 1 µg/mL (≈ 2.34 µM)
- MIC (Escherichia coli [6]): 256 µg/mL (≈ 599 µM)
- inhibition zone (IZ) (Escherichia coli [16]): 8.8 mm
- MIC (Escherichia coli [7]): 512 µg/mL (≈ 1200 µM)
- MIC (Escherichia coli [8]): 2 µg/mL (≈ 4.68 µM)

Compound: CC(C)CC(=O)N[C@H]1/C(=N/OC(=O)Nc2ccccc2)O[C@H](CO)[C@@H](O)[C@@H]1O
- Selectivity ratio [11]: 13
- Kinact [9]: 15 µM
- Ki [10]: 190 µM
- Ki (Homo sapiens): > 1200 µM
